Measurements as given in publication PMC12336832, “A key loop in the catalytic pocket of the PL17 family of alginate lyases determines minimal substrate recognition” (The Journal of Biological Chemistry, 2025).

Assays:
VaAly17B = target: T1, VaAly17B (Vibrio alginolyticus, UniProt A0A2I3CRW2); test: TBA assay, TLC, gel filtration HPLC, ESI-MS; type: biochemical; settings: pH 8.0, 200 mM NaCl, 20 °C, 0.3% substrate
T1 construct: gene N646_4460; N-terminal His tag, E. coli BL21(DE3), plasmid pZLZ05; no signal peptide predicted; theoretical 81,023 Da
T1 sequence (A0A2I3CRW2 1-721): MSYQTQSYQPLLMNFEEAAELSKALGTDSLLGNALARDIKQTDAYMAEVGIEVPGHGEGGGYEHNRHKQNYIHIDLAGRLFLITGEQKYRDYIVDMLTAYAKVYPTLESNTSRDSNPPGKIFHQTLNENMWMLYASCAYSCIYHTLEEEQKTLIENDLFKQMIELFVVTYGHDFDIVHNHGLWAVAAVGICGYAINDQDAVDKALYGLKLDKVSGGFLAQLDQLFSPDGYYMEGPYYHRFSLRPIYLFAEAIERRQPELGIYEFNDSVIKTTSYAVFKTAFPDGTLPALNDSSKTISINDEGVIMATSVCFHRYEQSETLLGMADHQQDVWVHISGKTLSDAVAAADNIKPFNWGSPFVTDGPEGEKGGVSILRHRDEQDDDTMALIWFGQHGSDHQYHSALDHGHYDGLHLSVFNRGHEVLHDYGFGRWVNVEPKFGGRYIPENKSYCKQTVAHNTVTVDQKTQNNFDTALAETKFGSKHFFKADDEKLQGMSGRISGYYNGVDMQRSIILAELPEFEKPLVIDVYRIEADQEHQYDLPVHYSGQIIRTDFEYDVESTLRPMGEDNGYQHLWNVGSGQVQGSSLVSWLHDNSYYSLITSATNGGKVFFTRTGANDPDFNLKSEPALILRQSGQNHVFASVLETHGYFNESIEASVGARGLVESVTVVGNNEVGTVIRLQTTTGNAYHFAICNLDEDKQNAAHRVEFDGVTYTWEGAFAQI

VaAly17A = target: T2, VaAly17A (Vibrio alginolyticus, UniProt A0A2I3CRJ2); test: TBA assay, TLC, gel filtration HPLC, ESI-MS; type: biochemical; settings: pH 8.0, 200 mM NaCl, 30 °C, 0.3% substrate; exolytic, from the nonreducing end
T2 construct: gene N646_4459; N-terminal His tag, E. coli BL21(DE3), plasmid pZLZ04; no signal peptide predicted; theoretical 81,525 Da
T2 sequence (A0A2I3CRJ2 1-721): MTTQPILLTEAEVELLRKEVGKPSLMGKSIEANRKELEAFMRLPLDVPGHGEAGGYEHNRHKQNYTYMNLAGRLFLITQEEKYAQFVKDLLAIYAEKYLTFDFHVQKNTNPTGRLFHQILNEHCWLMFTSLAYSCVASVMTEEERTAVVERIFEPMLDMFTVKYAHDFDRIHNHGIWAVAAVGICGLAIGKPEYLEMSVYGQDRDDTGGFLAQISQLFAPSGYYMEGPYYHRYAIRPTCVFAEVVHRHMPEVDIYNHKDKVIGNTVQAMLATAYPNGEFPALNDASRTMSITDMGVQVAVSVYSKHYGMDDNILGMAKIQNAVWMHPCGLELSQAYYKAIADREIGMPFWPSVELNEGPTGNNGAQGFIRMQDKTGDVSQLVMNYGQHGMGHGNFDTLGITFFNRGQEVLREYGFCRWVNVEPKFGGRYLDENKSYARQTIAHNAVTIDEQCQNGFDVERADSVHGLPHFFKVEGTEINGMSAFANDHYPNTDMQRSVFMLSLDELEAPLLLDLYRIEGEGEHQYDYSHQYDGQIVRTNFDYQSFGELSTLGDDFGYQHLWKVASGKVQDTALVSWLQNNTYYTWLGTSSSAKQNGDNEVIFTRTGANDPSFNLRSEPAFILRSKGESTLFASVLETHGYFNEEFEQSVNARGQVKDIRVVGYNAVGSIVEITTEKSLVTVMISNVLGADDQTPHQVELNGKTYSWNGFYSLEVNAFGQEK

Row | Structure (SMILES) | specific activity (VaAly17B) | specific activity (VaAly17A)
1 | O=C(O)[C@H]1O[C@@H](O[C@H]2[C@H](O)[C@H](O)C(O)O[C@@H]2C(=O)O)[C@@H](O)[C@@H](O)[C@@H]1O (some centres unmarked) [M2, Dimer-M2] | VaAly17B could degrade M2 into monomers | 
2 | O=C(O)[C@H]1O[C@@H](O[C@H]2[C@H](O)[C@H](O)[C@H](O[C@H]3[C@H](O)[C@H](O)C(O)O[C@@H]3C(=O)O)O[C@@H]2C(=O)O)[C@@H](O)[C@@H](O)[C@@H]1O (some centres unmarked) [M3, Trimer-M3] |  | unsaturated M2 was produced when M3 was used as the substrate
